Results from patent publication US7074807B2, “Compositions and methods for inducing cell death” (Georgetown University, priority 1998, dated 2006).

Assays:
SAPK/JNK = assay: SAPK/JNK1 activity (GST-cJun phosphorylation); type: cell-based, human; conditions: 10 mM, 2 h, vs tempol or 1% ethanol control
Description: FIGS. 5A, 5B, 5C. Tempo stimulates tyrosine phosphorylation and activity of SAPK. […] 5A. WCLs (1 mg) were immunoprecipitated with agarose-conjugated anti-SAPK antibody, followed by immunoblotting with anti-PY MAb. 5B. In other independent experiments, anti-SAPK immunoprecipitates were first probed with anti-PY MAb (top), and the blot was then reprobed with anti-SAPK antibody (bottom). 5C. […] WCLs were immunoprecipitated with anti-JNK1 antibody, and the JNK1 activity in immunoprecipitates was measured using GST-cJun (˜41 kDa) as a substrate. UT, untreated cells grown overnight in serum-free medium; CONT/Control, cells grown in serum-free medium overnight, and treated with 1% ethanol for 2 h.
ERK and SAPK/JNK Activities—Whole cell lysates prepared as described above were immunoprecipitated (1 mg) with an agarose conjugated anti-ERK1 antibody or an agarose conjugated anti-JNK1 antibody for 2 h at 4° C. with constant agitation. The immune-complexes were washed 3 times in lysis buffer and once in KBB as mentioned earlier. ERK or JNK activity assay was carried out according to manufacturer's procedures (UBI). […] The radioactive filters were washed and counted as described above. […] The radiolabeled GST-cJun fusion protein was detected by autoradiography.

[1] = Apoptosis assay (annexin V-FITC/propidium iodide flow cytometry); conditions: human
Description: FIGS. (7A1–7A3), (7B1–7B2), (7C1–7C3), (7D1–7D2), (7E1–7E3), (7F1–7F2). […] Cells were grown in serum-free medium overnight in T-25 flasks and treated with tempol (10 mM) or tempo (10 mM) for various times, trypsinized, and then resuspended in 200 ul 1× binding buffer as described in experimental procedures. The cell suspension was double-stained with annexin V-FITC and propidium iodide and analyzed by flow cytometry. Background signal was determined by comparison with double-stained, single-stained, or unstained control cells. (7A1–7A3), (7C1–7C3), and (7E1–7E3) are cytograms showing a relative distribution of viable (V), apoptotic (A), and necrotic (N) cells at 2 h following tempol or tempo treatment of MDA-MB 231 cells (A), PCI-04A cells (C), and PC-3 cells (E). (7B1–7B3), (7D1–7D2), and (7F1–7F2) are time course analyses of MDA-MB 231 cells (B), PCT-04A cells (D), and PC-3 cells (F). 100,000 cells were analyzed at each time point in triplicate (B) or quadruplicate (D and F). Solid bars, 1% ethanol, striped bars, 10 mM tempol, empty bars, 10 mM tempo. […] Data shown are representative from three to four independent experiments. (7B1–7B2), Time course analysis of MDA-MB 231 cells undergoing apoptosis (annexin V-FITC staining) (7B1), or necrosis (propidium iodide staining) (7B2). Values shown are mean±s.d. of triplicate determinations per time point in each treatment category, and representative of three to four independent experiments. […] (7D1–7D2), Time course analysis of PCI-04A cells undergoing apoptosis (annexin V-FITC staining) (7D1), or necrosis (propidium iodide staining) (7D2). Values shown are mean±s.d. of quadruplicate determinations per time point in each treatment category. […] (7F1–7F2), Time course analysis of PC-3 cells undergoing apoptosis (annexin V-FITC staining) (7F1), or necrosis (propidium iodide staining) (7F2). Values shown are mean±s.d. of quadruplicate determinations per time point in each treatment category. Control/C, cells treated with 1% ethanol for 2 h.
Apoptosis Assay—ApoAlert Annexin V apoptosis detection system (Clontech Lab Inc., Palo Alto, Calif.) was used to measure the relative distribution of apoptotic and necrotic cells. Briefly, cells were seeded at a density of 1×10^6 cells per 25 cm^2 tissue culture flask in medium containing 10% FBS overnight, followed by washing twice in serum-free medium. Cells were maintained overnight in serum-free medium and exposed to tempol (10 mM) or tempo (10 mM) for various times. This was followed by rinsing twice with serum-free medium prior to trypsinization, dilution in two volumes of serum-free medium, and centrifugation at 10,000× g. The cell pellet was washed once with PBS and resuspended in 200 ul of 1× binding buffer. The cell suspension was double-labeled with fluorescein isothiocyanate (FITC)-labeled annexin V (10 ul) and propidium iodide (PI) (10 ul) according to the manufacturer's instructions. Unlabeled cells or untreated cells labeled with either FITC-annexin V or PI, or double-labeled served as internal controls for the background signal. The intensity of the dye uptake by cells was detected using FACStar plus Flow Cytometer (Becton Dickerson, Lincoln Park, N.J.), and data were analyzed using Reproman True Facts software (Seattle, Wash.). Viable cells were FITC−/PI−, apoptotic cells were FITC+/PI−, and necrotic cells were FITC+/PI+.

Row | Structure (SMILES) | increase in the phosphorylated GST-cJun fusion protein (SAPK/JNK) | viability at 2 h, 10 mM [1] [%]
1 | CC1(C)CCCC(C)(C)N1[O] [tempo, 2,2,6,6-tetramethylpiperidine-N-oxyl] | 3–7 fold | –
2 | CC1(C)CC(O)CC(C)(C)N1[O] [tempol, 4-hydroxy-tempo, reference compound] | – | 89.8
